Data: patent US20150290235A1, “USE OF SMALL MOLECULE INHIBITORS/ACTIVATORS IN COMBINATION WITH (DEOXY)NUCLEOSIDE OR (DEOXY)NUCLEOTIDE ANALOGS FOR TREATMENT OF CANCER AND HEMATOLOGICAL MALIGNANCIES OR VIRAL INFECTIONS” (AB SCIENCE, priority 2012, published 2015)
Where “and” joins values, the source holds several entries; their conditions need not be identical. Equal values may be shown once. Entries after “also recorded” stand apart in the source; their conditions may differ.

Tests used:
[1] = tested on: CMT27 breast carcinoma cells; experiment: Alamar Blue cell proliferation assay, CMT27; assay type: cell-based, canine
[2] = tested on: CMT12 breast carcinoma cells; experiment: Alamar Blue cell proliferation assay, CMT12; assay type: cell-based, canine
[3] = tested on: canine cancer cell lines other than C2; experiment: cells; conditions: Canis lupus familiaris, read-out: IC50 masitinib single agent
C2 mastocytoma cells = experiment: Alamar Blue cell proliferation assay, C2; assay type: cell-based, canine
[4] = tested on: Abrams osteosarcoma cells; experiment: Alamar Blue cell proliferation assay, Abrams; assay type: cell-based, canine
[5] = tested on: Mia Paca-2 pancreatic cancer cells; experiment: WST-1 proliferation assay, Mia Paca-2; assay type: cell-based, human; conditions: for response to gemcitabine after pre-incubation with TKI: Mia Paca-2, gemcitabine-resistant, 10 μM TKI
[6] = tested on: BxPC-3 pancreatic cancer cells; experiment: WST-1 proliferation assay, BxPC-3; assay type: cell-based, human
Description: (§1) Cancer cell lines: Pancreatic cancer cells lines (Mia Paca-2, Panc-1, BxPC-3 and Capan-2) were obtained from Dr. Juan Iovanna (Inserm, France). Cells were maintained in RPMI (BxPC-3, Capan-2) or DMEM (Mia Paca-2, Panc-1) medium containing glutamax-1 (Lonza), supplemented with 100 U/ml penicillin/100 μg/ml streptomycin, and 10% fetal calf serum (FCS) (AbCys, Lot S02823S1800). Expression of tyrosine kinases was determined by RT-PCR using Hot Star Taq (Qiagen GmbH, Hilden, Germany) in a 2720 Thermal Cycler (Applied Biosystems).
(§2) Treatment was started with the addition of the respective drug. […] After 72 hours WST-1 reagent was added and incubated with the cells for 4 hours before absorbance measurement at 450 nm in an EL800 Universal Microplate Reader (Bio-Tek Instruments Inc.). Media alone was used as a blank and proliferation in the absence of compounds served as positive control. Results are representative of three/four experiments.

[7] = tested on: Mia Paca-2 pancreatic tumors; experiment: Nog-SCID mouse model of human pancreatic cancer; assay type: in vivo, Nog-SCID mice; conditions: day 56, 28 days of treatment; control 1023
[8] = tested on: Ba/F3 cells expressing human or mouse wild-type c-Kit; conditions: read-out: IC50, blocking stem cell factor-induced proliferation and c-Kit tyrosine phosphorylation; cited from earlier work
D17 osteosarcoma cells = experiment: Alamar Blue cell proliferation assay, D17; assay type: cell-based, canine
[9] = tested on: Panc-1 pancreatic cancer cells; experiment: WST-1 proliferation assay, Panc-1; assay type: cell-based, human; conditions: Panc-1
Description: as §1, §2

[10] = tested on: Ba/F3 cells expressing PDGFR-α; conditions: read-out: IC50, PDGF-BB-stimulated proliferation and PDGFR-α tyrosine phosphorylation; cited from earlier work
[11] = tested on: Capan-2 pancreatic cancer cells; experiment: WST-1 proliferation assay, Capan-2; assay type: cell-based, human
Description: as §1, §2

[12] = molecular target: human deoxycytidine kinase (dCK) (Homo sapiens, UniProt P27707); experiment: dCK activity with UTP as phosphate donor (PK/LDH enzymatic-coupled assay); conditions: nine dCK substrates
[13] = Canis lupus familiaris, Breast carcinoma cell, 72 h, read-out: IC50 masitinib monotherapy
[14] = Canis lupus familiaris, 72 h, read-out: IC50 masitinib monotherapy

Sequence of human deoxycytidine kinase (dCK) (P27707 whole entry): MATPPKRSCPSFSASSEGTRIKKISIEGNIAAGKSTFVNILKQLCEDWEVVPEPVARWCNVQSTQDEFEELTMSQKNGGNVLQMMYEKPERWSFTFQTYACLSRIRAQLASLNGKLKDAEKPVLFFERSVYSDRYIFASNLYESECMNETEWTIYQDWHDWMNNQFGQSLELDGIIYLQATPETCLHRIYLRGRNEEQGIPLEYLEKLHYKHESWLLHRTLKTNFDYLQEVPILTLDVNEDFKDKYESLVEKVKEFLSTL

Compound: Cc1ccc(NC(=O)c2ccc(CN3CCN(C)CC3)cc2)cc1Nc1nc(-c2cccnc2)cs1 [Masitinib, 4-(4-methylpiperazin-1-ylmethyl)-N-[4-methyl-3-(4-pyridin-3ylthiazol-2-ylamino)phenyl]benzamide]
- Sensitization factor (maximum) ([1]; CMT27, gemcitabine with masitinib 10 μM): >75
- IC50 [1, 13]: 8 µM
- Sensitization factor (maximum) ([2]; CMT12, gemcitabine with masitinib 10 μM): >10
- IC50 [2, 13]: 8 µM
- IC50 [3]: 5 to 20 µM
- Sensitization factor (maximum) (C2 mastocytoma cells; C2, gemcitabine with masitinib 0.001 μM): 1
- IC50 (C2 mastocytoma cells; [14]): 0.03 µM
- Sensitization factor (maximum) ([4]; Abrams, gemcitabine with masitinib 5 μM): 18
- IC50 [4, 14]: > 10 µM
- IC50 ([5]; Homo sapiens, Mia Paca-2, 72 hours, 1% FCS, read-out: IC50, single agent): 5 to 10 µM
- response to gemcitabine after pre-incubation with TKI [5]: able to restore sensitivity to gemcitabine
- reduction in gemcitabine IC50 ([5]; Mia Paca-2, pre-treated with 5 and 10 μM masitinib (10 μM)): > 400 fold and 400 fold
- synergy of masitinib with gemcitabine ([6]; BxPC-3, gemcitabine-sensitive): no synergy
- IC50 ([6]; Homo sapiens, BxPC-3, 72 hours, 1% FCS, read-out: IC50, single agent): 5 to 10 µM
- Tumor Volume, Median [7]: 865 mm^3
- IC50 [8]: 0.15 ± 0.08 µM
- IC50 (D17 osteosarcoma cells; [14]): > 10 µM
- Sensitization factor (maximum) (D17 osteosarcoma cells; D17, gemcitabine with masitinib 5 μM): 70
- IC50 ([9]; Homo sapiens, 72 hours, 1% FCS, read-out: IC50, single agent): 5 to 10 µM
- reduction in gemcitabine IC50 ([9]; masitinib pre-treatment (10 μM)): 10 fold
- IC50 [10]: 0.3 ± 0.005 µM
- synergy of masitinib with gemcitabine ([11]; Capan-2, gemcitabine-sensitive): no synergy
- IC50 ([11]; Homo sapiens, Capan-2, 72 hours, 1% FCS, read-out: IC50, single agent): 5 to 10 µM

Compound: COc1cc(Nc2c(C#N)cnc3cc(OCCCN4CCN(C)CC4)c(OC)cc23)c(Cl)cc1Cl [bosutinib, 4-[(2,4-dichloro-5-methoxyphenyl)amino]-6-methoxy-7-[3-(4-methylpiperazin-1-yl)propoxy]quinoline-3-carbonitrile]
- activation of dCK (substrate phosphorylation) [12]: most active compounds; also recorded: activate dCK

Compound: CO[C@@H](C(=O)N1Cc2n[nH]c(NC(=O)c3ccc(N4CCN(C)CC4)cc3)c2C1)c1ccccc1 [danusertib]
- activation of dCK (substrate phosphorylation) [12]: most active compounds; also recorded: activate dCK

Compound: Cc1nc(Nc2ncc(C(=O)Nc3c(C)cccc3Cl)s2)cc(N2CCN(CCO)CC2)n1.O [dasatinib, N-(2-chloro-6-methylphenyl)-2-[[6-[4-(2-hydroxyethyl)-1-piperazinyl]-2-methyl-4-pyrimidinyl]amino]-5-thiazole carboxamide monohydrate]
- response to gemcitabine after pre-incubation with TKI [5]: did not result in an increased response
- cell proliferation with TKI alone ([5]; Mia Paca-2, imatinib 10 μM, dasatinib >0.1 μM): partially inhibited

Compound: C#Cc1cccc(Nc2ncnc3cc(OCCOC)c(OCCOC)cc23)c1 [erlotinib, N-(3-ethynylphenyl)-6,7-bis(2-methoxyethoxy) quinazolin-4-amine]
- activation of dCK (substrate phosphorylation) [12]: relatively little or no activity

Compound: COc1cc(Nc2ncc(F)c(Nc3ccc4c(n3)N(COP(=O)(O)O)C(=O)C(C)(C)O4)n2)cc(OC)c1OC [fostamatinib, [6-({5-fluoro-2-[(3,4,5-trimethoxyphenyl)amino]pyrimidin-4-yl}amino)-2,2-dimethyl-3-oxo-2,3-dihydro-4H-pyrido[3,2-b][1,4]oxazin-4-yl]methyl dihydrogen phosphate]
- activation of dCK (substrate phosphorylation) [12]: relatively little or no activity; also recorded: did not activate dCK

Compound: Cc1ccc(NC(=O)c2ccc(CN3CCN(C)CC3)cc2)cc1Nc1nccc(-c2cccnc2)n1 [imatinib, 4-[(4-methylpiperazin-1-yl)methyl]-N-[4-methyl-3-[(4-pyridin-3-ylpyrimidin-2-yl)amino]phenyl]benzamide]
- response to gemcitabine after pre-incubation with TKI [5]: did not result in an increased response

Compound: Cc1cn(-c2cc(NC(=O)c3ccc(C)c(Nc4nccc(-c5cccnc5)n4)c3)cc(C(F)(F)F)c2)cn1 [nilotinib, 4-methyl-N-[3-(4-methyl-1H-imidazol-1-yl)-5-(trifluoromethyl)phenyl]-3-[(4-pyridin-3-ylpyrimidin-2-yl)amino]benzamide]
- activation of dCK (substrate phosphorylation) [12]: relatively little or no activity; also recorded: did not activate dCK

Compound: CNC(=O)c1cc(Oc2ccc(NC(=O)Nc3ccc(Cl)c(C(F)(F)F)c3)cc2)ccn1 [sorafenib, 4-[4-[[4-chloro-3-(trifluoromethyl)phenyl]carbamoylamino]phenoxy]-N-methyl-pyridine-2-carboxamide]
- activation of dCK (substrate phosphorylation) [12]: relatively little or no activity; also recorded: did not activate dCK

Compound: CCN(CC)CCNC(=O)c1c(C)[nH]c(/C=C2\C(=O)Nc3ccc(F)cc32)c1C [sunitinib, N-(2-diethylaminoethyl)-5-[(Z)-(5-fluoro-2-oxo-1H-indol-3-ylidene)methyl]-2,4-dimethyl-1H-pyrrole-3-carboxamide]
- activation of dCK (substrate phosphorylation) [12]: relatively little or no activity; also recorded: did not activate dCK

Compound: Cc1[nH]c(/C=C2\C(=O)Nc3ccc(F)cc32)c(C)c1C(=O)NCCN1CCCC1 [toceranib, (Z)-5-[(5-Fluoro-2-oxo-1,2-dihydro-3H-indol-3-ylidene)methyl]-2,4-dimethyl-N-(2-pyrrolidin-1-ylethyl)-1H-pyrrole-3-carboxamide]
- activation of dCK (substrate phosphorylation) [12]: relatively little or no activity; also recorded: did not activate dCK

Compound: Cc1cc(Nc2cc(N3CCN(C)CC3)nc(Sc3ccc(NC(=O)C4CC4)cc3)n2)[nH]n1 [tozacertib]
- activation of dCK (substrate phosphorylation) [12]: most active compounds; also recorded: activate dCK
